From publication PMC6328172, “5-HT2 receptor binding, functional activity and selectivity in N-benzyltryptamines” (PLoS ONE, 2019)
Read-outs that look alike come from different tables or passages of the source.

Assays:
human 5-HT2A receptor [1] = molecular target: T1, human 5-HT2A receptor (Homo sapiens, UniProt P28223); assay: Ca2+ mobilization in CHO h5-HT2A cells; format: cell-based; conditions: for EC50: Ca2+ mobilization; for Selectivity 5-HT2A/2C (functional): from EC50 values, Table 2; for Emax: relative efficacy, % of response to 5-HT
T1 construct: expressed in transfected cells; host or cells: CHO (CHO-5-HT2A cell line)

human 5-HT2C receptor [2] = molecular target: T2, human 5-HT2C receptor (Homo sapiens, UniProt P28335); assay: Competition binding to the human 5-HT2C receptor ([3H]mesulergine, HeLa-5-HT2C membranes); conditions: for Selectivity 5-HT2C/2A (binding, in parentheses): from Ki values, Table 1; for Ki: human receptor, [3H]mesulergine displacement, no unit in the table, nM, read-out: 5-HT2C Ki (in parentheses) (converted)
T2 construct: expressed in transfected cells; host or cells: HeLa (HeLa-5-HT2C cell line)
T2 sequence (P28335 33-458): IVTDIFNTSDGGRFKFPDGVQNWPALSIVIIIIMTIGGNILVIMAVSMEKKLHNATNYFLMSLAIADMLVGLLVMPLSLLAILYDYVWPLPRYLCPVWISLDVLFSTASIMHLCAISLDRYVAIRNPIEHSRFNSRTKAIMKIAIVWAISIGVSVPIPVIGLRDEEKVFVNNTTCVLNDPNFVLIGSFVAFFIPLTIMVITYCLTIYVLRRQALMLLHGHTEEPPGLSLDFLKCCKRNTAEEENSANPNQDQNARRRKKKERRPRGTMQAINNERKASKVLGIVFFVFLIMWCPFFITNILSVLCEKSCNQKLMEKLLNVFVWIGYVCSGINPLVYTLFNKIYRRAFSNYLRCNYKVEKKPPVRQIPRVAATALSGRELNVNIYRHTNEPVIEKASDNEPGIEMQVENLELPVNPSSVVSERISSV

human 5-HT2A receptor [3] = molecular target: T1, human 5-HT2A receptor; assay: Competition binding to the human 5-HT2A receptor ([3H]ketanserin, CHO-5-HT2A membranes); conditions: for Selectivity 5-HT2A/2C (binding): from Ki values, Table 1; for Ki: human receptor, [3H]ketanserin displacement
human 5-HT2B receptor = human 5-HT2B receptor (Homo sapiens, UniProt P41595); assay: Competition binding to the human 5-HT2B receptor ([3H]LSD, CHO-5-HT2B membranes)
human 5-HT2C receptor [4] = molecular target: T2, human 5-HT2C receptor; assay: Ca2+ mobilization in HeLa h5-HT2C cells; format: cell-based
[5] = no unit in the table, nM, read-out: 5-HT2A EC50 (in parentheses) (converted)
[6] = no unit in the table, nM, read-out: 5-HT2A Ki (in parentheses) (converted)
[7] = Ca2+ mobilization; no unit in the table, nM; read-out: 5-HT2C EC50 (in parentheses) (converted)

human 5-HT2B receptor, sequence (P41595 whole entry): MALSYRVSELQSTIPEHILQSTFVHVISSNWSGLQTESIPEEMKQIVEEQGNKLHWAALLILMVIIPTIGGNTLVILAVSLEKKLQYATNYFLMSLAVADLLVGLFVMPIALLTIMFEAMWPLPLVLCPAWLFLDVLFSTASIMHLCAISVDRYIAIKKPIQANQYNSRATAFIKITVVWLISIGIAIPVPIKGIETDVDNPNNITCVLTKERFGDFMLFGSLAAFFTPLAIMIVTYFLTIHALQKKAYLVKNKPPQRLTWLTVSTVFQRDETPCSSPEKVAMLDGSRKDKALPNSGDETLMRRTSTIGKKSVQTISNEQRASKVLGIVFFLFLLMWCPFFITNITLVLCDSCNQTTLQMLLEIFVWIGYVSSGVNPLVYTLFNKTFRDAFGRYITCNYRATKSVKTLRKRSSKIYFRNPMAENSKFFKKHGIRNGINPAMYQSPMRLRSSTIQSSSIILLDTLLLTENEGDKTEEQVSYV
T1 sequence (P28223 whole entry): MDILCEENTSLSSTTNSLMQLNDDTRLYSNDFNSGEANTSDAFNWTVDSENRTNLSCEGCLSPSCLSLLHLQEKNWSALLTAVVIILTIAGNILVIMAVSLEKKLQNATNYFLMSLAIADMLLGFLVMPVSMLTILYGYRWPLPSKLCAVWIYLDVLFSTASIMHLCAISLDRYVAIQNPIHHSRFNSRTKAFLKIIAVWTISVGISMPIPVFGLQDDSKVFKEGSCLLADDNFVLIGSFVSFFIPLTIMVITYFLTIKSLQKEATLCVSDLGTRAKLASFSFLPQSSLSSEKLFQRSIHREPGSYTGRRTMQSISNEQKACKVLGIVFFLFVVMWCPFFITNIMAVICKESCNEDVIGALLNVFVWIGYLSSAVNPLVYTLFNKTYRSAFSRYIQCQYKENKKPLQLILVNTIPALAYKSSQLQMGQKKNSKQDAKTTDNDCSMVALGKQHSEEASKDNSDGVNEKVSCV

| Compound | EC50 (human 5-HT2A receptor [1]; [5]) | Selectivity 5-HT2A/2C (functional) (human 5-HT2A receptor [1]) | Emax (human 5-HT2A receptor [1]) | Selectivity 5-HT2C/2A (binding, in parentheses) (human 5-HT2C receptor [2]) | Ki (human 5-HT2C receptor [2]) | Selectivity 5-HT2A/2C (binding) (human 5-HT2A receptor [3]) | Ki (human 5-HT2A receptor [3]; [6]) | Ki (human 5-HT2B receptor) | EC50 (human 5-HT2C receptor [4]; [7]) | Emax (human 5-HT2C receptor [4]; HeLa; read-out: 5-HT2C % Emax) | Selectivity 5-HT2C/2A (functional, in parentheses) (human 5-HT2C receptor [4]; from EC50 values, Table 2) | Emax (human 5-HT2C receptor [4]; HeLa, read-out: 5-HT2C % Emax) | times less potent than its 5-methoxytryptamine analog, h5-HT2A functional assay (human 5-HT2A receptor [1]; 3 vs 38, 5 vs 39) | EC50 (human 5-HT2A receptor [1]; pEC50 ± SEM, read-out: 5-HT2A pEC50 (converted)) | Ki (human 5-HT2A receptor [3]; read-out: 5-HT2A pKi ± S.E.M. (converted)) | inhibition at 10 µM (human 5-HT2A receptor [3]; 10 μM, values marked *) |
| --- | --- | --- | --- | --- | --- | --- | --- | --- | --- | --- | --- | --- | --- | --- | --- | --- |
| Cc1cccc(CNCCc2c[nH]c3ccccc23)c1 [Compound 8, N-(3-Methylbenzyl)-[2-(1H-indol-3-yl)ethyl]amine] | 61.7 nM | 0.48 | 33 ± 2.11% | 0.20 | 74.1 nM | 5.10 | 14.4 nM | 17 nM | 29.5 nM | 82.6 ± 2.11% | 2.09 | – | – | – | – | – |
| COc1ccc2[nH]cc(CCNCc3ccc(Br)cc3)c2c1 [Compound 41, N-(4-Bromobenzyl)-[2-(5-methoxy-1H-indol-3-yl)ethyl]amine] | 1860 nM | 0.071 | 60.5 ± 2.41% | 1.02 | 380 nM | 0.98 | 389 nM | 155 nM | 132 nM | 93.5 ± 3.05% | 14.1 | – | – | – | – | – |
| Brc1cccc(CNCCc2c[nH]c3ccccc23)c1 [Compound 11, N-(3-Bromobenzyl)-[2-(1H-indol-3-yl)ethyl]amine] | 58.9 nM | 0.93 | 32.6 ± 1.64% | – | 75.9 nM | – | 8.13 nM | 21.9 nM | 55 nM | 107 ± 2.78% | 1.07 | – | – | – | – | – |
| Clc1cccc(CNCCc2c[nH]c3ccccc23)c1 [Compound 10, N-(3-Chlorobenzyl)-[2-(1H-indol-3-yl)ethyl]amine] | 120 nM | 2.34 | 57.9 ± 4.15% | 0.46 | 97.7 nM | 2.17 | 44.7 nM | 34.7 nM | 282 nM | 117 ± 4.82% | 0.43 | – | – | – | – | – |
| COc1ccc(OC)c(CNCCc2c[nH]c3ccccc23)c1 [Compound 29, N-(2,5-Dimethoxybenzyl)-[2-(1H-indol-3-yl)ethyl]amine] | 3470 nM | 0.038 | 39 ± 0.67% | 3.85 | 87.1 nM | 0.26 | 331 nM | 57.5 nM | 132 nM | 118 ± 4.45% | 26.3 | – | – | – | – | – |
| COc1ccc(O)c(CNCCc2c[nH]c3ccc(OC)cc23)c1 [Compound 42, N-(2-Hydroxy-5-methoxybenzyl)-[2-(5-methoxy-1H-indol-3-yl)ethyl]amine] | – | 0.91 | 43.6 ± 0.9% | 3.31 | 40.7 nM | 0.30 | 135 nM | 20.4 nM | – | – | 1.1 | 89.4 ± 3.86% | – | – | – | – |
| COc1ccccc1CNCCc1c[nH]c2ccccc12 [Compound 3, N-(2-Methoxybenzyl)-[2-(1H-indol-3-yl)ethyl]amine] | 1550 nM | 0.023 | 63 ± 1.95% | 0.39 | 224 nM | 2.56 | 89.1 nM | 46.8 nM | 35.5 nM | 94.2 ± 3.75% | 43.7 | – | several hundred times less potent | 1550 nM | – | – |
| Oc1ccc(F)cc1CNCCc1c[nH]c2ccccc12 [Compound 24, N-(5-Fluoro-2-hydroxybenzyl)-[2-(1H-indol-3-yl)ethyl]amine] | 75.9 nM | 0.35 | 71.6 ± 1.95% | 7.15 | 105 nM | 0.14 | 759 nM | 77.6 nM | 26.3 nM | 105 ± 2.19% | 2.88 | – | – | – | 794 nM | – |
| Oc1ccccc1CNCCc1c[nH]c2ccccc12 [Compound 2, N-(2-Hydroxybenzyl)-[2-(1H-indol-3-yl)ethyl]amine] | 200 nM | 0.17 | 94.1 ± 4.59% | 1.37 | 85.1 nM | 0.73 | 115 nM | 67.6 nM | 33.9 nM | 85.8 ± 2.83% | 5.89 | – | – | – | – | – |
| Cc1ccccc1CNCCc1c[nH]c2ccccc12 [Compound 4, N-(2-Methylbenzyl)-[2-(1H-indol-3-yl)ethyl]amine] | 2000 nM | 0.069 | 44.4 ± 2.79% | – | 661 nM | – | – | 339 nM | 138 nM | 107 ± 2.9% | 14.5 | – | – | – | – | 48 ± 1% |
| CCOc1ccc(CNCCc2c[nH]c3ccccc23)cc1 [Compound 15, N-(4-Ethoxybenzyl)-[2-(1H-indol-3-yl)ethyl]amine] | 363 nM | 0.032 | 36.7 ± 6.13% | 0.36 | 741 nM | 2.66 | 275 nM | 269 nM | 11.7 nM | 93.2 ± 3.26% | 30.9 | – | – | – | – | – |
| Oc1cccc(Br)c1CNCCc1c[nH]c2ccccc12 [Compound 33, N-(6-Bromo-2-hydroxybenzyl)-[2-(1H-indol-3-yl)ethyl]amine] | 5890 nM | 0.13 | 34.4 ± 1.37% | 15 | 112 nM | 0.067 | 1660 nM | 69.2 nM | 794 nM | 104 ± 2.91% | 7.41 | – | – | – | – | – |
| Brc1ccccc1CNCCc1c[nH]c2ccccc12 [Compound 6, N-(2-Bromobenzyl)-[2-(1H-indol-3-yl)ethyl]amine] | 2240 nM | 0.10 | 29.3 ± 5.93% | 0.57 | 339 nM | 1.74 | 195 nM | 74.1 nM | 234 nM | 109 ± 5.2% | 9.55 | – | – | – | – | – |
